The term IC50 denotes the midpoint of a concentration-inhibition curve.

Structures are written as SMILES.

Type in all cases: biochemical
In test [1] the target is PDE1A (Homo sapiens, UniProt P54750). Kind of test: PDE1 inhibition assay (PDE1A), SPA with tritium labelled cAMP. Conditions: 15 nM tritium labelled cAMP, 1 hr at room temperature, SPA beads. As for the experimental part:
(§1) PDE1A, PDE1B and PDE1C assays were performed as follows: the assays were performed in 60 μL samples containing a fixed amount of the PDE1 enzyme (sufficient to convert 20-25% of the cyclic nucleotide substrate), a buffer (50 mM HEPES (4-(2-hydroxyethyl)-1-piperazineethanesulfonic acid) pH 7.6; 10 mM MgCl2; 0.02% Tween20), 0.1 mg/ml BSA (bovine serum albumin), 15 nM tritium labelled cAMP and varying amounts of inhibitors. Reactions were initiated by addition of the cyclic nucleotide substrate, and reactions were allowed to proceed for 1 hr at room temperature before being terminated through mixing with 20 μL (0.2 mg) yttrium silicate SPA beads (PerkinElmer). The beads were allowed to settle for 1 hr in the dark before the plates were counted in a Wallac 1450 Microbeta counter. The measured signals were converted to activity relative to an uninhibited control (100%) and IC50 values were calculated using XIFit (model 205, IDBS).

In test [2] the target is PDE1C (Homo sapiens, UniProt Q14123). Kind of test: PDE1 inhibition assay (PDE1C), SPA with tritium labelled cAMP. To be noted: 15 nM tritium labelled cAMP, 1 hr at room temperature, SPA beads. Here is the method:
as §1

Test [3] concerns the target PDE1B (Homo sapiens, UniProt Q01064). Kind of test: PDE1 inhibition assay (PDE1B), SPA with tritium labelled cAMP. To be noted: 15 nM tritium labelled cAMP, 1 hr at room temperature, SPA beads; read-out: PDE1B, IC50. As for the experimental part: Reactions were initiated by addition of the cyclic nucleotide substrate, and reactions were allowed to proceed for 1 hr at room temperature before being terminated through mixing with 20 μL (0.2 mg) yttrium silicate SPA beads (PerkinElmer).

Chain of PDE1A (P54750 whole entry): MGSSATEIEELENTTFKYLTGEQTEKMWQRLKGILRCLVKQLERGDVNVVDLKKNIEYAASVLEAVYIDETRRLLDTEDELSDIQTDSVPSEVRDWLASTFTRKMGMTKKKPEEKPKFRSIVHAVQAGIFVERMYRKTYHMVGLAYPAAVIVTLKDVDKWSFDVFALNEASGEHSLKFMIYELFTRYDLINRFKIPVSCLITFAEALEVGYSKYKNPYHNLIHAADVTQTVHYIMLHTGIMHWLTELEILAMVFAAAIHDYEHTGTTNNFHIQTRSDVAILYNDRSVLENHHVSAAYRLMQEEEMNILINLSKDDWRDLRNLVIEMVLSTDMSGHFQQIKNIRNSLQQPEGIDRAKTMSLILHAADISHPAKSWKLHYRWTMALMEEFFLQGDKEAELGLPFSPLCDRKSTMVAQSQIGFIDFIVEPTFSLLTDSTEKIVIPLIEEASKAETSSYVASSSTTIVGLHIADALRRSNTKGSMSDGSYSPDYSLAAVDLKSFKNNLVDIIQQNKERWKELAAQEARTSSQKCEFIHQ
Chain of PDE1C (Q14123 whole entry): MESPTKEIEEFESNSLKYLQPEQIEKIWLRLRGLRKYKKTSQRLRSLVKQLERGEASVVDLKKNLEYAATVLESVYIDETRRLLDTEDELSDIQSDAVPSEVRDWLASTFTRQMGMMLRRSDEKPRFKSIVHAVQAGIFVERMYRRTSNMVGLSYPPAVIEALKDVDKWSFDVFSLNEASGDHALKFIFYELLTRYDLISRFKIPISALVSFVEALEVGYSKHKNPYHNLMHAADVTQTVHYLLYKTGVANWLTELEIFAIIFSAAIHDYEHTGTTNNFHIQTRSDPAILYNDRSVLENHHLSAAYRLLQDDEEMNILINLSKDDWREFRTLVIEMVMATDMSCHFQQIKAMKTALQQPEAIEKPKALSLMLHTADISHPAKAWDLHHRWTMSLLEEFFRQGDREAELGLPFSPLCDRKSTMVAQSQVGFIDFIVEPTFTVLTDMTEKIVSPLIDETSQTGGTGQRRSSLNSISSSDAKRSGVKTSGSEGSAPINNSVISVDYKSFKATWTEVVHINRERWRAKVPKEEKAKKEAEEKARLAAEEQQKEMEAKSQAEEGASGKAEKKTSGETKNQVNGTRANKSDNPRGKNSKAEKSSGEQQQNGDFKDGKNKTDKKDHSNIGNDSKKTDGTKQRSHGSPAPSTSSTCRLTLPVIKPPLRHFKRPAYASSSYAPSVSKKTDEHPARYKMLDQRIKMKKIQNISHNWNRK
Chain of PDE1B (Q01064 whole entry): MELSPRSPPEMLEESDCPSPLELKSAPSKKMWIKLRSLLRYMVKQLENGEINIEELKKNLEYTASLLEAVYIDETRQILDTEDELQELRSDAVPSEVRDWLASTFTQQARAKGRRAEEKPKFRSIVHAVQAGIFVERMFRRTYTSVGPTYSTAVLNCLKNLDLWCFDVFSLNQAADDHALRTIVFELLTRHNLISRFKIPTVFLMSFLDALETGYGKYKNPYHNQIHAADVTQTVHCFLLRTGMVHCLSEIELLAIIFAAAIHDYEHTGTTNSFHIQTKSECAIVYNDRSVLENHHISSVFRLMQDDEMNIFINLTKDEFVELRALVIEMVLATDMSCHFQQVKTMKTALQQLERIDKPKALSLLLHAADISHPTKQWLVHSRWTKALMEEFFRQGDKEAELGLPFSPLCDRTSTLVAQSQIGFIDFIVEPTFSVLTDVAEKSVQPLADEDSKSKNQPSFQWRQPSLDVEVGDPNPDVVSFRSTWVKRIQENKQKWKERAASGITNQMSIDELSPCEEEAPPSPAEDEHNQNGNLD

Take `CCOc1ncccc1-c1cc(NCc2cnn(C)c2)c2c(C(C)CC)nc(C)n2n1` (single isomer, unassigned; (+)) [Example 48, (+)-2-(2-ethoxy-3-pyridyl)-7-methyl-N-[(1-methylpyrazol-4-yl)methyl]-5-[1-methylpropyl]imidazo[1,5-b]pyridazin-4-amine]: the concentration for half-maximal inhibition (IC50) came out at 5.8 nM in test [1], 4.9 nM in test [2] and 0.64 nM in test [3].

As to `CCOc1ncccc1-c1cc(NCc2ncn(C)n2)c2c(C(C)CC)nc(C)n2n1` (single isomer, unassigned; (+)) [Example 50, (+)-2-(2-ethoxy-3-pyridyl)-7-methyl-N-[(1-methyl-1,2,4-triazol-3-yl)methyl]-5-[1-methylpropyl]imidazo[1,5-b]pyridazin-4-amine], the IC50 in test [1] amounted to 5.6 nM; in test [2], 2.4 nM; in test [3] it was 0.53 nM.

Take `CCOc1ncccc1-c1cc(NCc2cc[nH]n2)c2c(C(C)CC)nc(C)n2n1` (single isomer, unassigned; (+)) [Example 51, (+)-2-(2-ethoxy-3-pyridyl)-7-methyl-N-(1H-pyrazol-3-ylmethyl)-5-[1-methylpropyl]imidazo[1,5-b]pyridazin-4-amine]: the IC50 came out at 57 nM in test [1], 31 nM in test [2] and 4.3 nM in test [3].

As to `CCOc1ncccc1-c1cc(NCc2ccnc(OC)c2)c2c(C(C)CC)nc(C)n2n1` (single isomer, unassigned; (+)) [Example 53, (+)-2-(2-ethoxy-3-pyridyl)-N-[(2-methoxy-4-pyridyl)methyl]-7-methyl-5-[1-methylpropyl]imidazo[1,5-b]pyridazin-4-amine], the half-maximal inhibitory concentration (IC50) is 62 nM in test [1], 11 nM in test [2] and 12 nM in test [3].

In the case of `CCOc1ncccc1-c1cc(NCc2cnn(C)c2)c2c(C(C)CC)nc(C)n2n1` (single isomer, unassigned; (-)) [Example 47, (−)-2-(2-ethoxy-3-pyridyl)-7-methyl-N-[(1-methylpyrazol-4-yl)methyl]-5-[1-methylpropyl]imidazo[1,5-b]pyridazin-4-amine], the concentration for half-maximal inhibition (IC50) came out at 44 nM in test [1], 32 nM in test [2] and 7.5 nM in test [3].

With `CCOc1ncccc1-c1cc(NCc2ncn(C)n2)c2c(C(C)CC)nc(C)n2n1` (single isomer, unassigned; (-)) [Example 49, (−)-2-(2-ethoxy-3-pyridyl)-7-methyl-N-[(1-methyl-1,2,4-triazol-3-yl)methyl]-5-[1-methylpropyl]imidazo[1,5-b]pyridazin-4-amine], the IC50 in test [1] was 14 nM; in test [2], 7.6 nM; in test [3], 1.4 nM.

Consider `CCOc1ncccc1-c1cc(NCc2cc[nH]n2)c2c(C(C)CC)nc(C)n2n1` (single isomer, unassigned; (-)) [Example 52, (−)-2-(2-ethoxy-3-pyridyl)-7-methyl-N-(1H-pyrazol-3-ylmethyl)-5-[1-methylpropyl]imidazo[1,5-b]pyridazin-4-amine], for which the half-maximal inhibitory concentration (IC50) was 12 nM in test [1], 6.1 nM in test [2] and 0.65 nM in test [3].

Regarding `CCOc1ncccc1-c1cc(NCc2ccnc(OC)c2)c2c(C(C)CC)nc(C)n2n1` (single isomer, unassigned; (-)) [Example 54, (−)-2-(2-ethoxy-3-pyridyl)-N-[(2-methoxy-4-pyridyl)methyl]-7-methyl-5-[1-methylpropyl]imidazo[1,5-b]pyridazin-4-amine], the concentration for half-maximal inhibition (IC50) in test [1] is 9.6 nM; in test [2], 4.4 nM; in test [3], 1.8 nM.

For the compound `CCOc1ncccc1-c1cc(NCc2coc(C)n2)c2c(C(C)C)nn(C)c2n1` [Example 2, 6-(2-ethoxy-3-pyridyl)-3-isopropyl-1-methyl-N-[(2-methyloxazol-4-yl)methyl]pyrazolo[3,4-b]pyridin-4-amine], the half-inhibitory concentration (IC50) in test [1] turned out to be 81 nM; in test [2], 99 nM; in test [3], 15 nM.

As to `CCOc1ncccc1-c1cc(NCc2cc[nH]n2)c2c(C(C)C)nn(C)c2n1` [Example 3, 6-(2-ethoxy-3-pyridyl)-3-isopropyl-1-methyl-N-(1H-pyrazol-3-ylmethyl)pyrazolo[3,4-b]pyridin-4-amine], the 50% inhibitory concentration (IC50) was found to be 56 nM in test [1], 58 nM in test [2] and 4.3 nM in test [3].

As to `CCOc1ncccc1-c1cc(NCc2ncn(C)n2)c2c(C(C)C)nn(C)c2n1` [Example 4, 6-(2-ethoxy-3-pyridyl)-3-isopropyl-1-methyl-N-[(1-methyl-1,2,4-triazol-3-yl)methyl]pyrazolo[3,4-b]pyridin-4-amine], the figures for the half-inhibitory concentration (IC50) in test [1], in test [2] and in test [3] were 11 nM, 13 nM and 0.34 nM, respectively.

For the compound `CCOc1ncccc1-c1cc(NCc2noc(C)n2)c2c(C(C)C)nn(C)c2n1` [Example 5, 6-(2-ethoxy-3-pyridyl)-3-isopropyl-1-methyl-N-[(5-methyl-1,2,4-oxadiazol-3-yl)methyl]pyrazolo[3,4-b]pyridin-4-amine], the IC50 was 8.9 nM in test [1], 19 nM in test [2] and 1.1 nM in test [3].

`CCOc1ncccc1-c1cc(NCc2cc(C)[nH]n2)c2c(C(C)C)nn(C)c2n1` [Example 6, 6-(2-ethoxy-3-pyridyl)-3-isopropyl-1-methyl-N-[(5-methyl-1H-pyrazol-3-yl)methyl]pyrazolo[3,4-b]pyridin-4-amine]: the half-maximal inhibitory concentration (IC50) stood at 14 nM in test [1], 20 nM in test [2] and 1.2 nM in test [3].

Turning to `CCOc1ncccc1-c1cc(NCc2ccnc(OC)c2)c2c(C(C)C)nn(C)c2n1` [Example 7, 6-(2-ethoxy-3-pyridyl)-3-isopropyl-N-[(2-methoxy-4-pyridyl)methyl]-1-methyl-pyrazolo[3,4-b]pyridin-4-amine], the IC50 came out at 14 nM in test [1], 18 nM in test [2] and 2.6 nM in test [3].

In the case of `CCOc1ncccc1-c1cc(NCc2cn(C)cn2)c2c(C(C)C)nc(C)n2n1` [Example 8, 2-(2-ethoxy-3-pyridyl)-5-isopropyl-7-methyl-N-[(1-methylimidazol-4-yl)methyl]imidazo[1,5-b]pyridazin-4-amine], the results for the concentration for half-maximal inhibition (IC50) in test [1], in test [2] and in test [3] were 2.4 nM, 2.6 nM and 0.22 nM, respectively.

As to `CCOc1ncccc1-c1cc(NCc2coc(C)n2)c2c(C(C)C)nc(C)n2n1` [Example 9, 2-(2-ethoxy-3-pyridyl)-5-isopropyl-7-methyl-N-[(2-methyloxazol-4-yl)methyl]imidazo[1,5-b]pyridazin-4-amine], the figures for the concentration for half-maximal inhibition (IC50) in test [1], in test [2] and in test [3] were 30 nM, 29 nM and 4.3 nM, respectively.

`CCOc1ncccc1-c1cc(NCc2cc[nH]n2)c2c(C(C)C)nc(C)n2n1` [Example 10, 2-(2-ethoxy-3-pyridyl)-5-isopropyl-7-methyl-N-(1H-pyrazol-3-ylmethyl)imidazo[1,5-b]pyridazin-4-amine]: the IC50 stood at 15 nM in test [1], 13 nM in test [2] and 1.6 nM in test [3].

On to `CCOc1ncccc1-c1cc(NCc2ncn(C)n2)c2c(C(C)C)nc(C)n2n1` [Example 11, 2-(2-ethoxy-3-pyridyl)-5-isopropyl-7-methyl-N-[(1-methyl-1,2,4-triazol-3-yl)methyl]imidazo[1,5-b]pyridazin-4-amine], for which the half-inhibitory concentration (IC50) came out at 2 nM in test [1], 2.6 nM in test [2] and 0.28 nM in test [3].

For the compound `CCOc1ncccc1-c1cc(NCc2noc(C)n2)c2c(C(C)C)nc(C)n2n1` [Example 12, 2-(2-ethoxy-3-pyridyl)-5-isopropyl-7-methyl-N-[(5-methyl-1,2,4-oxadiazol-3-yl)methyl]imidazo[1,5-b]pyridazin-4-amine], the figures for the half-inhibitory concentration (IC50) in test [1], in test [2] and in test [3] were 3.6 nM, 4 nM and 0.35 nM, respectively.

On to `CCOc1ncccc1-c1cc(NCc2cc(C)[nH]n2)c2c(C(C)C)nc(C)n2n1` [Example 13, 2-(2-ethoxy-3-pyridyl)-5-isopropyl-7-methyl-N-[(5-methyl-1H-pyrazol-3-yl)methyl]imidazo[1,5-b]pyridazin-4-amine], for which the values for the half-inhibitory concentration (IC50) in test [1], in test [2] and in test [3] were 4.1 nM, 2.7 nM and 0.31 nM, respectively.

`CCOc1ncccc1-c1cc(NCc2cncc(OC)c2)c2c(C(C)C)nc(C)n2n1` [Example 14, 2-(2-ethoxy-3-pyridyl)-5-isopropyl-N-[(5-methoxy-3-pyridyl)methyl]-7-methyl-imidazo[1,5-b]pyridazin-4-amine]: the IC50 in test [1] was 6.2 nM; in test [2], 5.1 nM; in test [3], 1.5 nM.

For the compound `CCOc1ncccc1-c1cc(NCc2ccnc(OC)c2)c2c(C(C)C)nc(C)n2n1` [Example 15, 2-(2-ethoxy-3-pyridyl)-5-isopropyl-N-[(2-methoxy-4-pyridyl)methyl]-7-methyl-imidazo[1,5-b]pyridazin-4-amine], the IC50 in test [1] worked out at 7.3 nM; in test [2], 9 nM; in test [3], 1.7 nM.

`CCOc1ncccc1-c1cc(NCc2cnc(C)o2)c2c(C(C)C)nc(C)n2n1` [Example 16, 2-(2-ethoxy-3-pyridyl)-5-isopropyl-7-methyl-N-[(2-methyloxazol-5-yl)methyl]imidazo[1,5-b]pyridazin-4-amine]: the IC50 in test [1] amounted to 19 nM; in test [2] it was 16 nM; in test [3] it was 2.8 nM.

The values above are taken from patent US10351561B2, “Pyrazolo[3,4-b]pyridines and imidazo[1,5-b]pyridazines as PDE1 inhibitors” (H. Lundbeck A/S, priority 2016, dated 2019).
